These compounds were tested against LRRK2 (Homo sapiens, UniProt Q5S007) (assay: LRRK2-LRRK2 G2019S-Assay (LanthaScreen Eu Kinase Binding Assay)). Details: 5 nM LRRK2, 10 nM tracer 236, 2 nM EU-Anti-GST antibody, 1 h at RT; read-out: LRRK2 Activities: IC50.
Chain of LRRK2 (Q5S007 970-2527 limits assumed): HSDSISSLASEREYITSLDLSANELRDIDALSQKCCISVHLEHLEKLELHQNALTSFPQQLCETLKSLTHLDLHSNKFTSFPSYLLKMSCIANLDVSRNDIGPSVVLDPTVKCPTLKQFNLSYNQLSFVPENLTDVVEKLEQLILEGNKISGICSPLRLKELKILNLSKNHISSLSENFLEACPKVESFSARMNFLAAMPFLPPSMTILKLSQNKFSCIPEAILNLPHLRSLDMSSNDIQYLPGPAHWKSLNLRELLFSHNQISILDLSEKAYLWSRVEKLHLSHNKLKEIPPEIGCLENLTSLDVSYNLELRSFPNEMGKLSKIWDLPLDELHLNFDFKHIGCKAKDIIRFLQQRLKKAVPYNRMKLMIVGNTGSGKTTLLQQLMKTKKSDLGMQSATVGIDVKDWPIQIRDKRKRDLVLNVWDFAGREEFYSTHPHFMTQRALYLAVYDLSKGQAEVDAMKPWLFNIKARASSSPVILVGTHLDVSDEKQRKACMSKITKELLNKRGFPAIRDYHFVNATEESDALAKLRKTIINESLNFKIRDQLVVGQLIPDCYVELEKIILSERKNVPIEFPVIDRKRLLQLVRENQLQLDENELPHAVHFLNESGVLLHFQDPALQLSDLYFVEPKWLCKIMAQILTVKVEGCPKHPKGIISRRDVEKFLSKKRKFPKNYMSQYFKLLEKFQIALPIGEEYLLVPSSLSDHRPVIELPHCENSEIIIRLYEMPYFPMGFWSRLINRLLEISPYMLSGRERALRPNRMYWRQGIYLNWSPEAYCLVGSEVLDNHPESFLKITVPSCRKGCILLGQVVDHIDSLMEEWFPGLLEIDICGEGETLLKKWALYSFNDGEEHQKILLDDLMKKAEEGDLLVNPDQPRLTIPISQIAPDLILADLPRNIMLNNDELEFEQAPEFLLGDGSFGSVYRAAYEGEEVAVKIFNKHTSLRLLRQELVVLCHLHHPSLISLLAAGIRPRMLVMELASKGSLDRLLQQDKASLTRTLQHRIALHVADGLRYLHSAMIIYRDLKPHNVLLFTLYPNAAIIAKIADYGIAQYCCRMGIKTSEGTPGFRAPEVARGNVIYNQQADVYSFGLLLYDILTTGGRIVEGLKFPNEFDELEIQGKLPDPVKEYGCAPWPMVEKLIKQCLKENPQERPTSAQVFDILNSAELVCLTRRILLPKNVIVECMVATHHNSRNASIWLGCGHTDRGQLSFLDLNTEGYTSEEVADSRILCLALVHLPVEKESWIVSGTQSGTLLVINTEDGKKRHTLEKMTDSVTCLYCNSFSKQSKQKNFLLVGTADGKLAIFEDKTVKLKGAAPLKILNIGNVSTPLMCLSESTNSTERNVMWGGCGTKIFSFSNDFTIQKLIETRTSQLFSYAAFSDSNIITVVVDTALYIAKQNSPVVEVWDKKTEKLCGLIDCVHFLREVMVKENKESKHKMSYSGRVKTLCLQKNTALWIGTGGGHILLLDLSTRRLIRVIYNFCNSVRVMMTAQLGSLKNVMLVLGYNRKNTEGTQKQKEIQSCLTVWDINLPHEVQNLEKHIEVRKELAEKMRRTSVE
Procedure: In the assay LanthaScreen™ Eu Kinase Binding Assay by Invitrogen Corporation (Carlsbad) the effect of invention of a compound on the phosphorylation is determined by measurement of fluorescence intensity emission ratio based on the binding and displacement of a proprietary, Alexa Fluor® 647-labeled, ATP-competitive kinase inhibitor scaffold (kinase tracer) to the kinase of interest. Binding of the tracer to the kinase is detected using a europium-labeled anti-tag antibody, which binds to the kinase of interest. Simultaneous binding of both the tracer and antibody to the kinase results in a high degree of FRET (fluorescence resonance energy transfer) from the europium (Eu) donor fluorophore to the Alexa Fluor® 647 acceptor fluorophore on the kinase tracer. Binding of an inhibitor to the kinase competes for binding with the tracer, resulting in a loss of FRET. The fluorescence intensity ratio is directly proportional to the amount of peptide phosphorylation.
To the wells of an 384 well small volume plate (Greiner, Frickenhausen) are added (i) the compound under test in 5% DMSO/distilled water (5 μl), (ii) 5 μl of the kinase antibody mixture resulting in a final concentration 5 nM LRRK2 or their mutants, 2 nM EU-Anti-GST antibody in 1× kinase buffer A. The reaction was started with addition of (iii) 5 μl resulting in a final concentration of 10 nM tracer 236. The assay plate was incubated at RT for 1 h and fluorescence intensity readings were collected using a TECAN M1000 at two wavelengths of λex 340/λem 615 nm and λex 340/λem 665 nm with a delay time of 100 μs and an integration time of 200 μs after 60 minutes. The emission ratio was calculated by division of the acceptor/tracer emission ([…]) by the antibody/donor emission ([…]). The inhibitor concentration was plotted versus the emission ratio to determine the IC50 using XLFit 5.0 (IDBS, Guildford) to fit to a sigmoidal dose response curve with a variable slope.
With `Fc1cc(Nc2nc3cccc(F)c3c3cn[nH]c23)ccc1N1CCOCC1` [Example 2, 9-fluoro-N-(3-fluoro-4-morpholinophenyl)-3H-pyrazolo[3,4-c]quinolin-4-amine] the IC50 was 100 to 1000 nM. With `COc1ccc2nc(Nc3ccc(F)c(S(C)(=O)=O)c3)c3n[nH]cc3c2c1` [Example 4, N-(4-fluoro-3-(methylsulfonyl)phenyl)-8-methoxy-2H-pyrazolo[3,4-c]quinolin-4-amine] the IC50 was 100 to 1000 nM. For `COc1ccc2nc(Nc3cccc(CN(C)C)c3)c3n[nH]cc3c2c1` [Example 5, N-(3-((dimethylamino)methyl)phenyl)-8-methoxy-2H-pyrazolo[3,4-c]quinolin-4-amine], the IC50 was 100 to 1000 nM. In the case of `COc1ccc2nc(Nc3cccc(C(=O)N4CCOCC4)c3)c3n[nH]cc3c2c1` [Example 7, (3-((8-methoxy-2H-pyrazolo[3,4-c]quinolin-4-yl)amino)phenyl)(morpholino)methanone], the IC50 is reported as 100 to 1000 nM. Compound `Fc1cccc2nc(Nc3ccc(N4CCOCC4)cc3)c3[nH]ncc3c12` [Example 9, 9-fluoro-N-(4-morpholinophenyl)-3H-pyrazolo[3,4-c]quinolin-4-amine] has an IC50 of 10 to 100 nM. Work on `Fc1cccc2nc(Nc3ccc(N4CCOCC4)nc3)c3[nH]ncc3c12` [Example 11, 9-fluoro-N-(6-morpholinopyridin-3-yl)-3H-pyrazolo[3,4-c]quinolin-4-amine] yielded an IC50 of 100 to 1000 nM. `COc1ccc2nc(Nc3ccc4c(c3)S(=O)(=O)CC4)c3n[nH]cc3c2c1` [Example 12, 6-((8-methoxy-2H-pyrazolo[3,4-c]quinolin-4-yl)amino)-2,3-dihydrobenzo[b]thiophene 1,1-dioxide] gave an IC50 of 100 to 1000 nM. `COc1ccc2nc(Nc3ccc4c(c3)S(=O)(=O)C=C4)c3n[nH]cc3c2c1` [Example 13, 6-((8-methoxy-2H-pyrazolo[3,4-c]quinolin-4-yl)amino)benzo[b]thiophene 1,1-dioxide] showed an IC50 of 100 to 1000 nM. `COc1cccc2nc(Nc3ccc(C(=O)N4CCOCC4)cc3)c3[nH]ncc3c12` [Example 14, (4-((9-methoxy-3H-pyrazolo[3,4-c]quinolin-4-yl)amino)phenyl)(morpholino)methanone] showed an IC50 of 10 to 100 nM. For `COc1cccc2nc(Nc3ccc(CN4CCOCC4)cc3)c3[nH]ncc3c12` [Example 15, 9-methoxy-N-(4-(morpholinomethyl)phenyl)-3H-pyrazolo[3,4-c]quinolin-4-amine], the IC50 was 10 to 100 nM. `COc1cc(Nc2nc3cccc(OC)c3c3cn[nH]c23)ccc1N1CCOCC1` [Example 16, 9-methoxy-N-(3-methoxy-4-morpholinophenyl)-3H-pyrazolo[3,4-c]quinolin-4-amine] gave an IC50 of 10 to 100 nM. For `COc1cccc2nc(Nc3ccc(N4CCOCC4)nc3)c3[nH]ncc3c12` [Example 17, 9-methoxy-N-(6-morpholinopyridin-3-yl)-3H-pyrazolo[3,4-c]quinolin-4-amine], the IC50 was 10 to 100 nM. In the case of `COc1cccc2nc(Nc3ccc4c(c3)COC4)c3[nH]ncc3c12` [Example 18, N-(1,3-dihydroisobenzofuran-5-yl)-9-methoxy-3H-pyrazolo[3,4-c]quinolin-4-amine], the IC50 is reported as 10 to 100 nM. `COc1cccc2nc(Nc3ccc4c(c3)S(=O)(=O)CC4)c3[nH]ncc3c12` [Example 19, 6-((9-methoxy-3H-pyrazolo[3,4-c]quinolin-4-yl)amino)-2,3-dihydrobenzo[b]thiophene 1,1-dioxide] showed an IC50 of 10 to 100 nM. `COc1cccc2nc(Nc3ccc4c(c3)S(=O)(=O)C=C4)c3[nH]ncc3c12` [Example 20, 6-((9-methoxy-3H-pyrazolo[3,4-c]quinolin-4-yl)amino)benzo[b]thiophene 1,1-dioxide] was tested, and the IC50 was 10 to 100 nM. Compound `COc1ccc2nc(Nc3cccc(CN4CCOCC4)c3)c3n[nH]cc3c2c1` [Example 23, 8-methoxy-N-(3-(morpholinomethyl)phenyl)-2H-pyrazolo[3,4-c]quinolin-4-amine] has an IC50 of 100 to 1000 nM. With `COc1ccc2nc(Nc3cccc(C(C)(C)C#N)c3)c3n[nH]cc3c2c1` [Example 24, 2-(3-((8-methoxy-2H-pyrazolo[3,4-c]quinolin-4-yl)amino)phenyl)-2-methylpropanenitrile] the IC50 was 100 to 1000 nM. Work on `COc1ccc2nc(Nc3ccc(N4CCOC4=O)cc3)c3n[nH]cc3c2c1` [Example 25, 3-(4-((8-methoxy-2H-pyrazolo[3,4-c]quinolin-4-yl)amino)phenyl)oxazolidin-2-one] yielded an IC50 of 100 to 1000 nM. Work on `COc1cccc2nc(Nc3cc(C4CC4)[nH]n3)c3n[nH]cc3c12` [Example 26, N-(5-cyclopropyl-1H-pyrazol-3-yl)-9-methoxy-3H-pyrazolo[3,4-c]quinolin-4-amine] yielded an IC50 of 10 to 100 nM. For `COc1cccc2nc(Nc3ccc(N4CCOCC4)c(F)c3)c3[nH]ncc3c12` [Example 27, N-(3-fluoro-4-morpholinophenyl)-9-methoxy-3H-pyrazolo[3,4-c]quinolin-4-amine], the IC50 was 10 to 100 nM. `COc1cccc2nc(Nc3cccc(CN(C)C)c3)c3[nH]ncc3c12` [Example 28, N-(3-((dimethylamino)methyl)phenyl)-9-methoxy-3H-pyrazolo[3,4-c]quinolin-4-amine] showed an IC50 of 100 to 1000 nM. `O=C(c1ccc(Nc2nc3cccc(F)c3c3cn[nH]c23)cc1)N1CCOCC1` [Example 29, (4-((9-fluoro-3H-pyrazolo[3,4-c]quinolin-4-yl)amino)phenyl)(morpholino)methanone] gave an IC50 of 100 to 1000 nM. `Fc1cccc2nc(Nc3ccc(CN4CCOCC4)cc3)c3[nH]ncc3c12` [Example 30, 9-fluoro-N-(4-(morpholinomethyl)phenyl)-3H-pyrazolo[3,4-c]quinolin-4-amine] was tested, and the IC50 was 100 to 1000 nM. For `COc1cc(Nc2nc3cccc(F)c3c3cn[nH]c23)ccc1N1CCOCC1` [Example 31, 9-fluoro-N-(3-methoxy-4-morpholinophenyl)-3H-pyrazolo[3,4-c]quinolin-4-amine], the IC50 was 100 to 1000 nM. For `COc1cccc2nc(Nc3ccc(F)c(S(C)(=O)=O)c3)c3[nH]ncc3c12` [Example 32, N-(4-fluoro-3-(methylsulfonyl)phenyl)-9-methoxy-3H-pyrazolo[3,4-c]quinolin-4-amine], the IC50 was 10 to 100 nM. With `COc1cccc2nc(Nc3cccc(C(C)(C)C#N)c3)c3[nH]ncc3c12` [Example 33, 2-(3-((9-methoxy-3H-pyrazolo[3,4-c]quinolin-4-yl)amino)phenyl)-2-methylpropanenitrile] the IC50 was 100 to 1000 nM. For `COc1ccc2nc(Nc3ccc(C(=O)N4CCOCC4)c(F)c3)c3n[nH]cc3c2c1` [Example 34, (2-fluoro-4-((8-methoxy-2H-pyrazolo[3,4-c]quinolin-4-yl)amino)phenyl)(morpholino)methanone], the IC50 was 10 to 100 nM. In the case of `COc1ccc2nc(Nc3ccc(C(=O)N4CCOCC4)c([N+](=O)[O-])c3)c3n[nH]cc3c2c1` [Example 35, (4-((8-methoxy-2H-pyrazolo[3,4-c]quinolin-4-yl)amino)-2-nitrophenyl)(morpholino)methanone], the IC50 is reported as 100 to 1000 nM. With `COc1ccc2nc(Nc3ccc(-c4ncco4)cc3)c3n[nH]cc3c2c1` [Example 36, 8-methoxy-N-(4-(oxazol-2-yl)phenyl)-2H-pyrazolo[3,4-c]quinolin-4-amine] the IC50 was 100 to 1000 nM. With `COc1ccc2nc(Nc3ccc(-c4cnco4)cc3)c3n[nH]cc3c2c1` [Example 37, 8-methoxy-N-(4-(oxazol-5-yl)phenyl)-2H-pyrazolo[3,4-c]quinolin-4-amine] the IC50 was less than 10 nM. `COc1cccc2nc(Nc3ccc(N4CCN(C(C)(C)C)CC4)cc3)c3[nH]ncc3c12` [Example 38, N-(4-(4-(tert-butyl)piperazin-1-yl)phenyl)-9-methoxy-3H-pyrazolo[3,4-c]quinolin-4-amine] showed an IC50 of 10 to 100 nM. With `COc1cccc2nc(Nc3ccc(C(=O)N4CCC(N5CCN(C)CC5)CC4)cc3)c3[nH]ncc3c12` [Example 39, (4-((9-methoxy-3H-pyrazolo[3,4-c]quinolin-4-yl)amino)phenyl)(4-(4-methylpiperazin-1-yl)piperidin-1-yl)methanone] the IC50 was 10 to 100 nM. With `COc1cccc2nc(Nc3ccc(N4CCOC4=O)cc3)c3n[nH]cc3c12` [Example 40, 3-(4-((9-methoxy-2H-pyrazolo[3,4-c]quinolin-4-yl)amino)phenyl)oxazolidin-2-one] the IC50 was less than 10 nM. With `CSc1ccc2nc(Nc3ccc(N4CCOCC4)cc3)c3[nH]ncc3c2c1` [Example 43, 8-(methylthio)-N-(4-morpholinophenyl)-3H-pyrazolo[3,4-c]quinolin-4-amine] the IC50 was 10 to 100 nM. `CSc1ccc2nc(Nc3cccc(S(C)(=O)=O)c3)c3[nH]ncc3c2c1` [Example 44, N-(3-(methylsulfonyl)phenyl)-8-(methylthio)-3H-pyrazolo[3,4-c]quinolin-4-amine] showed an IC50 of 10 to 100 nM. Compound `COc1ccc(Nc2nc3ccc(SC)cc3c3cn[nH]c23)cc1OC` [Example 45, N-(3,4-dimethoxyphenyl)-8-(methylthio)-3H-pyrazolo[3,4-c]quinolin-4-amine] has an IC50 of 100 to 1000 nM. Work on `Fc1cccc2c1nc(Nc1ccc(N3CCOCC3)cc1)c1[nH]ncc12` [Example 50, 6-fluoro-N-(4-morpholinophenyl)-3H-pyrazolo[3,4-c]quinolin-4-amine] yielded an IC50 of 100 to 1000 nM.

From patent publication US10752624B2, “Kinase inhibitors” (Origenis GmbH, priority 2012, dated 2020)
